Each structure is given as a SMILES string. Where “and” joins values, the source holds several entries; their conditions need not be identical. Identical values can stand only once.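 Test compounds were applied to cells in 96-well plates for 48 hours at 5 doses. GI50 marks 50% less growth. TGI: total growth inhibition.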

Some test systems named below: UACC-62 melanoma; K-562 leukemia; LOX IMVI melanoma; HCT-15 colon; MDA-MB-231 breast; UACC-257 melanoma; HL-60(TB) leukemia; NCI-H522 lung; CAKI-1 renal; U251 CNS.
Test in all cases: DTP human tumour cell line panel, 48 h

One may read the GI50 as the concentration at which growth is held to half of that of the control. Usually TGI stands for the concentration at which net growth stops. Lower therefore signals more potent growth arrest. On to `COCC(=O)OC1CCn2c1nc1c2C(=O)C(C)=C(NC(C)=O)C1=O` (stereo unspecified), for which the GI50 in the test on UACC-62 melanoma was 2.08 µM; in the test on K-562 leukemia it was 3.23 µM; in the test on LOX IMVI melanoma, 2.81 µM; in the test with NCI-H522 lung it was 5.52 µM; with U251 CNS it was 4.36 µM. For the same molecule, the TGI in the test on UACC-62 melanoma is 4.16 µM and 7.52 µM; with K-562 leukemia it was 11.9 µM; in the test with LOX IMVI melanoma it was 13.2 µM; in the test with HCT-15 colon, 30.1 µM; in the test on MDA-MB-231 breast, 4.71 µM; in the test with UACC-257 melanoma it was 9.08 µM. Further, the concentration for total growth inhibition (TGI) turned out to be 3.68 µM with HL-60(TB) leukemia, 14.3 µM in the test with NCI-H522 lung, 32.3 µM with CAKI-1 renal and 17.4 µM in the test on U251 CNS.
Consider `COc1ccc(/C=N/Nc2nc3ccccc3c(=O)n2-c2ccccc2)c(OCc2ccccc2)c1`, for which the TGI with UACC-62 melanoma, with K-562 leukemia, with LOX IMVI melanoma, with HCT-15 colon, with MDA-MB-231 breast and in the test with UACC-257 melanoma was > 100 µM throughout. For the same molecule, the TGI in the test on HL-60(TB) leukemia, in the test on NCI-H522 lung, in the test on CAKI-1 renal and with U251 CNS was > 100 µM throughout.
`CC(O)(C(=O)N(O)c1ccc(Cl)cc1)c1ccc(Cl)cc1` (stereo unspecified): the TGI with UACC-62 melanoma is > 100 µM; with K-562 leukemia, 43.1 µM; with LOX IMVI melanoma it was > 100 µM; with HCT-15 colon, 65.7 µM; in the test with MDA-MB-231 breast, 56.7 µM; in the test with UACC-257 melanoma, 65.1 µM. In addition, the TGI is 35.9 µM in the test on HL-60(TB) leukemia, 46.1 µM with NCI-H522 lung, 83.6 µM in the test on CAKI-1 renal and 64.4 µM with U251 CNS.
Consider `CC1OC(n2cc(F)c(=O)[nH]c2=O)C(O[Si](C)(C)C(C)(C)C)C1O[Si](C)(C)C(C)(C)C` (stereo unspecified), for which the TGI in the test with UACC-62 melanoma is 28.6 µM; with K-562 leukemia, 36.1 µM; in the test on LOX IMVI melanoma, 42 µM; in the test on HCT-15 colon, 25.6 µM; in the test on MDA-MB-231 breast, 31.6 µM; in the test with UACC-257 melanoma, 33.2 µM. Besides, the TGI was determined as 45.1 µM in the test on HL-60(TB) leukemia, 16.8 µM in the test with NCI-H522 lung, 28.9 µM in the test on CAKI-1 renal and 26.9 µM in the test with U251 CNS.
With `O=c1c(Cc2ccccc2)c(-c2ccccc2)[nH]n1C1=NCCN1`, the TGI was > 100 µM with UACC-62 melanoma; > 100 µM in the test with K-562 leukemia; 38.1 µM in the test on LOX IMVI melanoma; > 100 µM in the test on HCT-15 colon; > 100 µM with MDA-MB-231 breast; > 100 µM in the test on UACC-257 melanoma. Moreover, the TGI with HL-60(TB) leukemia, in the test with NCI-H522 lung, in the test on CAKI-1 renal and in the test with U251 CNS was > 100 µM in each case.
Take `Cc1cc2c(cc1Cl)SC(NNc1cnc3ccccc3n1)=NS2(=O)=O`: the TGI in the test with UACC-62 melanoma, in the test with K-562 leukemia, with LOX IMVI melanoma, in the test with HCT-15 colon, in the test on MDA-MB-231 breast and with UACC-257 melanoma was > 100 µM throughout. Moreover, the TGI in the test on HL-60(TB) leukemia, in the test on NCI-H522 lung, in the test with CAKI-1 renal and with U251 CNS was > 100 µM in each case.
Consider `COn1cc(CO)c2ccccc21`, for which the total growth inhibition concentration (TGI) is > 100 µM with UACC-62 melanoma; > 100 µM in the test with K-562 leukemia; > 100 µM with LOX IMVI melanoma; > 100 µM in the test with HCT-15 colon; > 100 µM in the test with MDA-MB-231 breast; > 70.8 µM in the test on UACC-257 melanoma. Besides, the TGI with HL-60(TB) leukemia is > 100 µM; in the test with NCI-H522 lung, 72.9 µM; in the test with CAKI-1 renal it was > 54.8 µM; with U251 CNS it was > 100 µM.
Take `COc1cc2nc(-c3c(F)cccc3F)n(Cc3c(F)cccc3F)c2cc1Cc1c(F)cccc1F`: the concentration for total growth inhibition (TGI) in the test on UACC-62 melanoma, in the test on K-562 leukemia, with LOX IMVI melanoma, with HCT-15 colon, in the test on MDA-MB-231 breast and with UACC-257 melanoma was > 100 µM each time. For the same molecule, the TGI with HL-60(TB) leukemia, in the test with NCI-H522 lung, with CAKI-1 renal and in the test with U251 CNS was > 100 µM throughout.
For the molecule `CC1(C)[C@@H]2C[C@H]1c1cnc(-c3ccccn3)cc1[C@H]2C(O)[C@@H]1c2cc(-c3ccccn3)ncc2[C@H]2C[C@@H]1C2(C)C` (stereo partly specified), the TGI was 7.66 µM with UACC-62 melanoma; > 52 µM in the test on K-562 leukemia; 4.52 µM with LOX IMVI melanoma; 25.2 µM in the test with HCT-15 colon; 3.89 µM in the test on MDA-MB-231 breast; 26 µM in the test on UACC-257 melanoma. The TGI in the test on HL-60(TB) leukemia was 0.112 µM; in the test with NCI-H522 lung, 3.06 µM; in the test with CAKI-1 renal, 2.43 µM; in the test with U251 CNS, 7.45 µM.
As for `COc1cc2c3c(n(C)c(=O)c2cc1OC)-c1cc2c(cc1/C3=C/CCCCBr)OCO2`, the GI50 with UACC-62 melanoma is > 100 µM. The TGI with UACC-62 melanoma, with K-562 leukemia, with LOX IMVI melanoma, in the test on HCT-15 colon, in the test with MDA-MB-231 breast and in the test on UACC-257 melanoma was > 100 µM throughout. Further, the TGI in the test with HL-60(TB) leukemia, in the test on NCI-H522 lung, with CAKI-1 renal and in the test with U251 CNS was > 100 µM each time.
As to `COC(=O)C(CCSC)NC(=O)CSc1nnc(COc2ccc(Cl)cc2)n1-c1ccccc1` (stereo unspecified), the TGI with UACC-62 melanoma is 32.7 µM; in the test on K-562 leukemia, 69.9 µM; with LOX IMVI melanoma, 32.4 µM; in the test on HCT-15 colon, 39.8 µM; in the test with MDA-MB-231 breast it was 31.3 µM; with UACC-257 melanoma, 31.2 µM. Further, the TGI with HL-60(TB) leukemia was determined as 38.6 µM; in the test on NCI-H522 lung, 18.1 µM; in the test with CAKI-1 renal, 35.9 µM; in the test on U251 CNS, 30.9 µM.
Turning to `CC[P+](C#Cc1ccccc1)(c1ccccc1)c1ccccc1`, the concentration for total growth inhibition (TGI) with UACC-62 melanoma worked out at 3.45 µM; with K-562 leukemia it was 0.74 µM; with LOX IMVI melanoma it was 4.19 µM; in the test with HCT-15 colon, 17.7 µM; with MDA-MB-231 breast, 9.41 µM; in the test with UACC-257 melanoma, 4.11 µM. The TGI came to 1.05 µM with HL-60(TB) leukemia, 3.32 µM with NCI-H522 lung, 32.8 µM in the test on CAKI-1 renal and 4.48 µM with U251 CNS.
Turning to `COc1cc2c(cc1O)CC[n+]1cc3c(OC)c(OC)ccc3cc1-2`, the TGI with UACC-62 melanoma, with K-562 leukemia, in the test on LOX IMVI melanoma, in the test with HCT-15 colon, in the test on MDA-MB-231 breast and in the test on UACC-257 melanoma was > 100 µM each time. The TGI in the test on HL-60(TB) leukemia, in the test with NCI-H522 lung, with CAKI-1 renal and in the test with U251 CNS was > 100 µM in each case.
On to `O=[N+]([O-])c1ccc2nc3c(nc2c1)-c1c2ccccc2cc2cccc-3c12`, for which the TGI in the test with UACC-62 melanoma is 39.2 µM; in the test on K-562 leukemia, > 85.9 µM; with LOX IMVI melanoma it was > 23.6 µM; in the test on HCT-15 colon it was > 100 µM; with MDA-MB-231 breast it was 64.2 µM; in the test on UACC-257 melanoma it was > 94.6 µM. Besides, the total growth inhibition concentration (TGI) in the test with HL-60(TB) leukemia was > 100 µM; in the test with NCI-H522 lung, 7.85 µM; in the test on CAKI-1 renal, > 40.7 µM; with U251 CNS, > 66 µM.
As for `Cc1ccsc1C(=S)Nc1ccc(Cl)c(C(=O)OC(C(C)C)C(C)C)c1`, the concentration for total growth inhibition (TGI) in the test with UACC-62 melanoma is > 100 µM; in the test with K-562 leukemia, > 100 µM; in the test on LOX IMVI melanoma, 55.3 µM; in the test on HCT-15 colon, > 100 µM; with MDA-MB-231 breast, 71.3 µM; with UACC-257 melanoma it was > 100 µM. Besides, the TGI is 31.5 µM in the test on HL-60(TB) leukemia, 81.8 µM with NCI-H522 lung, 59.8 µM in the test with CAKI-1 renal and 97.1 µM with U251 CNS.
Regarding `COP(=O)(CC(=O)C1OC(OCc2ccccc2)C(OCc2ccccc2)C(OCc2ccccc2)C1OCc1ccccc1)OC` (stereo unspecified), the concentration for total growth inhibition (TGI) is 17.8 µM with UACC-62 melanoma; > 100 µM in the test with K-562 leukemia; 32.3 µM in the test with LOX IMVI melanoma; > 100 µM in the test on HCT-15 colon; 61.1 µM in the test with MDA-MB-231 breast; 43.9 µM in the test on UACC-257 melanoma. Also, the TGI in the test with HL-60(TB) leukemia was 23.7 µM; in the test with NCI-H522 lung, > 100 µM; in the test with CAKI-1 renal, 19.5 µM; with U251 CNS, > 100 µM.
As to `COc1cc(/C=C/c2cc(=O)cc(/C=C/c3ccc(O)c(OC)c3)o2)ccc1O`, the TGI in the test with UACC-62 melanoma, with K-562 leukemia, with LOX IMVI melanoma, in the test on HCT-15 colon, in the test with MDA-MB-231 breast and with UACC-257 melanoma was > 100 µM in each case. The TGI in the test on HL-60(TB) leukemia, in the test with NCI-H522 lung, with CAKI-1 renal and in the test with U251 CNS was > 100 µM throughout.
As to `O=C(O)c1cc2ccccc2c(S(=O)(=O)O)c1O`, the TGI in the test with UACC-62 melanoma, in the test with K-562 leukemia, in the test with LOX IMVI melanoma, in the test with HCT-15 colon, in the test on MDA-MB-231 breast and in the test on UACC-257 melanoma was > 100 µM each time. In addition, the TGI in the test on HL-60(TB) leukemia, with NCI-H522 lung, in the test on CAKI-1 renal and in the test on U251 CNS was > 100 µM throughout.

The record behind these values is PubChem BioAssay (NCI).
